In data set [1] the target is T1, C-X-C chemokine receptor type 3 (Homo sapiens, UniProt P49682).
T1 sequence (P49682 whole entry): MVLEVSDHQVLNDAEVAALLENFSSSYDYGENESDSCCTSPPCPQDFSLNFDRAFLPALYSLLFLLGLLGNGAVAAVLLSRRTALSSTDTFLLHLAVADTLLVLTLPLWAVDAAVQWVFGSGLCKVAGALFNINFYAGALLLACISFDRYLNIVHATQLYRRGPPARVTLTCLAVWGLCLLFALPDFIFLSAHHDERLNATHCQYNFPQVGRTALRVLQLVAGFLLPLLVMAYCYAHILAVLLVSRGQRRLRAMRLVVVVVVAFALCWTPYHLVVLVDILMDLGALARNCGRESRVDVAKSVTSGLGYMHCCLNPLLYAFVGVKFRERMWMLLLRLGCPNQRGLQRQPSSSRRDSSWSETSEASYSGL
Briefly: Displacement of [125I]-CXCL10 from human CXCR3 expressed in CHO cell membrane. It counts as cell membranes.

Data set [2] deals with T1, C-X-C chemokine receptor type 3. Briefly: Antagonist activity at human CXCR3 expressed in CHO cell […] assessed as inhibition of calcium flux by FLIPR. It counts as functional, cell-based.
Data set [3] deals with T2, C-X-C chemokine receptor type 3 (Mus musculus, UniProt O88410).
T2 sequence (O88410 whole entry): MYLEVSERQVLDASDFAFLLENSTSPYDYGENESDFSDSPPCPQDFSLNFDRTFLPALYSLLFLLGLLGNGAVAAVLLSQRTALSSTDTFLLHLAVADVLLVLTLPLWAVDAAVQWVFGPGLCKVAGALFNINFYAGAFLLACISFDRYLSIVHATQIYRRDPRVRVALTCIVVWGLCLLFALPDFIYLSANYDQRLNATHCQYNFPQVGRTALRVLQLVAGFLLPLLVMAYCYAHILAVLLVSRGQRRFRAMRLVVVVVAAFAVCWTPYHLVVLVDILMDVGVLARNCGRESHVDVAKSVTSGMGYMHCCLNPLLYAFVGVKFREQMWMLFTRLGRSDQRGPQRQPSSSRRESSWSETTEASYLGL
Nature of the data set: Displacement of [125I]-CXCL10 from mouse CXCR3 expressed in CHO cell membrane. It counts as cell membranes. In general terms: Displacement assays read how much labelled ligand stays bound in the presence of the test substance.

Data set [4] in a line: Metabolic stability in mouse liver microsomes assessed as half life. It counts as ADME, Microsome. (In general: Microsomes from liver hold many membrane-bound enzymes, among them those of drug oxidation.)

This note sets out measurements from ChEMBL document CHEMBL1143901, “Lead identification of 2-iminobenzimidazole antagonists of the chemokine receptor CXCR3” (Bioorg Med Chem Lett, 2008).

What is called IC50 is the concentration that inhibits the measured activity by half. In the case of `CN(CCCn1c(=N)n(CC(=O)c2ccc(Cl)cc2)c2cccc(Cl)c21)C(=O)Cc1ccccc1`, the results for the IC50 in data set [1], in data set [2] and in data set [3] were 300 nM, 70 nM and 1400 nM, respectively.
In the same order, the values of `CN(CCCn1c(=N)n(CC(=O)c2ccc(Cl)cc2)c2cccc(Cl)c21)C(=O)c1ccccn1` are 30 nM, 20 nM and 200 nM.
As usually defined, the half-life is how long it takes for the measured level to halve. As for `CN(CCCn1c(=N)n(CC(=O)c2ccc(Cl)cc2)c2cccc(Cl)c21)C(=O)c1ccc2ccccc2c1`, the IC50 turned out to be 15 nM in data set [1], 40 nM in data set [2] and 500 nM in data set [3]. Also, the half-life in data set [4] was determined as 9.5 min.
Regarding `CCc1cccc2c1n(CCCN(C)C(=O)Cc1ccccc1)c(=N)n2CC(=O)c1ccc(Cl)cc1`, the values for the IC50 in data set [1], in data set [2] and in data set [3] were 200 nM, 100 nM and 1800 nM, respectively.
Turning to `CN(CCCCn1c(=N)n(CC(=O)c2ccc(Cl)cc2)c2cccc(Cl)c21)C(=O)Cc1ccccc1`, the IC50 in data set [1] and in data set [2] was 400 nM in each case.
On to `N=c1n(CC(=O)c2ccc(Cl)cc2)c2cccc(Cl)c2n1C[C@@H]1CCCN(C(=O)c2cccc3cccnc23)C1`, for which the IC50 turned out to be 15 nM in data set [1], 20 nM in data set [2] and 60 nM in data set [3].
The matching figures for `CN(CCn1c(=N)n(CC(=O)c2ccc(Cl)cc2)c2cccc(Cl)c21)C(=O)Cc1ccccc1`: 400 nM, 300 nM and 1500 nM.
For the molecule `CC(=O)N(C)CCn1c(=N)n(CC(=O)c2ccc(Cl)cc2)c2ccccc21`, the IC50 was 1300 nM in data set [1] and 3400 nM in data set [2].
As to `CN(CCn1c(=N)n(CC(=O)c2ccc(Cl)cc2)c2ccccc21)C(=O)C1CCCCC1`, the IC50 worked out at 500 nM in data set [1] and 900 nM in data set [2].
The matching figures for `CCOC(=O)CCn1c(=N)n(CC(=O)c2ccc(Cl)cc2)c2ccccc21`: 1200 nM and 2500 nM.
For the molecule `CN(CCn1c(=N)n(CC(=O)c2ccc(Cl)cc2)c2ccccc21)C(=O)c1ccccc1`, the IC50 in data set [1] was 300 nM; in data set [2] it was 2300 nM.
Regarding `CCCn1c(=N)n(CC(=O)c2ccc(Cl)cc2)c2ccccc21`, the half-maximal inhibitory concentration (IC50) in data set [1] is 1100 nM.
Same read-out and setting: with `Cn1c(=N)n(CC(=O)c2ccc(Cl)cc2)c2ccccc21` the figure was 700 nM.
For the molecule `N=c1n(CC(=O)c2ccc(Cl)cc2)c2cccc(Cl)c2n1CC1CCCN(C(=O)c2cccc3cccnc23)C1` (centres undefined), the figures for the IC50 in data set [1], in data set [2] and in data set [3] were 15 nM, 20 nM and 80 nM, respectively.
Consider `COc1ccccc1C(=O)N(C)CCCn1c(=N)n(CC(=O)c2ccc(Cl)cc2)c2cccc(Cl)c21`, for which the IC50 in data set [1] amounted to 50 nM; in data set [2], 20 nM; in data set [3], 150 nM. Besides, the half-life in data set [4] was 5.4 min.
Take `N=c1n(CC(=O)c2ccc(Cl)cc2)c2cccc(Cl)c2n1CCCN(C(=O)c1cccc2cccnc12)C1CC1`: the IC50 in data set [1] was 20 nM; in data set [2], 10 nM; in data set [3], 1100 nM.
Take `CN(CCn1c(=N)n(CC(=O)c2ccc(Cl)cc2)c2ccccc21)C(=O)Cc1ccccc1`: the IC50 in data set [1] turned out to be 400 nM; in data set [2], 800 nM.
For `N=c1n(CC(=O)c2ccc(Cl)cc2)c2cccc(Cl)c2n1CC[C@@H]1CCCN1C(=O)c1cccc2cccnc12`, the IC50 in data set [1] amounted to 8 nM; in data set [2] it was 20 nM; in data set [3], 40 nM. In data set [4], the half-life came out at 7.5 min.
As for `N=c1n(CC(=O)c2ccc(Cl)cc2)c2cccc(Cl)c2n1C[C@H]1CCCN(C(=O)c2cccc3cccnc23)C1`, the IC50 worked out at 16 nM in data set [1], 20 nM in data set [2] and 70 nM in data set [3].
As to `CN(CCCn1c(=N)n(CC(=O)c2ccc(Cl)cc2)c2cccc(Cl)c21)C(=O)C(C)(C)C`, the IC50 in data set [1] is 600 nM; in data set [2], 400 nM.
For `CN(CCCn1c(=N)n(CC(=O)c2ccc(Cl)cc2)c2cccc(Cl)c21)C(=O)c1ccccc1`, the IC50 in data set [1] worked out at 300 nM; in data set [2] it was 20 nM; in data set [3] it was 800 nM.
On to `CN(Cc1ccccc1)C(=O)CCn1c(=N)n(CC(=O)c2ccc(Cl)cc2)c2ccccc21`, for which the IC50 is 400 nM in data set [1] and 200 nM in data set [2].
Consider `CN(CCCn1c(=N)n(CC(=O)c2ccc(Cl)cc2)c2cccc(Cl)c21)C(=O)c1cccc2cccnc12`, for which the IC50 in data set [1] was 20 nM; in data set [2] it was 20 nM; in data set [3] it was 50 nM. Besides, the half-life in data set [4] came to 15 min.
With `CN(Cc1ccccc1)C(=O)Cn1c(=N)n(CC(=O)c2ccc(Cl)cc2)c2ccccc21`, in data set [1], the IC50 is 2200 nM.
Regarding `CCn1c(=N)n(CC(=O)c2ccc(Cl)cc2)c2ccccc21`, the IC50 in data set [1] is 700 nM; in data set [2], 3500 nM.
